Data reported in US7985740B2, “Purine derivatives as agonists of the adenosine A2A receptor” (Glaxo Group Limited, priority 2005, dated 2011).

Columns and labels:
[1] = linear conversion of literature % PPB; cited from earlier work
[2] = biological target: T1, Human Serum Albumin (HSA) (Homo sapiens, UniProt P02768); experiment: Human serum albumin (HSA) binding, immobilised HSA HPLC column; type: in vitro ADME; settings: for % HSA measured / logK measured: HSA column; for logK measured: derived from the calibration curve; for logtR: logarithm of typical retention time on the HSA column; for tR: typical retention time on the HSA column
T1 construct: purchased Chromtech (Cheshire, UK)
T1 sequence (P02768 25-609): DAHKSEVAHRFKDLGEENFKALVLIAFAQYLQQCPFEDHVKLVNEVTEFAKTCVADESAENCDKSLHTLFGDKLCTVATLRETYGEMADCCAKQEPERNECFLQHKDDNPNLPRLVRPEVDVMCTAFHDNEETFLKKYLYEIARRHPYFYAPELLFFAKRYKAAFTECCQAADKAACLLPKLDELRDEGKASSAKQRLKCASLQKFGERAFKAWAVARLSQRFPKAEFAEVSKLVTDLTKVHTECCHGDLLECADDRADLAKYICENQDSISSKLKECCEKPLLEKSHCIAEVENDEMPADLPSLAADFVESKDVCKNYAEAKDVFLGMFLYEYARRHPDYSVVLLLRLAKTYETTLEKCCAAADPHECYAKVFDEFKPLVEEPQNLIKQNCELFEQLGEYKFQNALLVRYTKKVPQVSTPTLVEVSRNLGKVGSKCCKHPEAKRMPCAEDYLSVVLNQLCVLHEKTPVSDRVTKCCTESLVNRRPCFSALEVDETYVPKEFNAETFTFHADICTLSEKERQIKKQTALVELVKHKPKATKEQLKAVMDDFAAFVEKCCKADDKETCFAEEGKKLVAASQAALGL
Description: Instrument: Agilent HP1100 HPLC instruments were used throughout.
HPLC columns: Chromtech Immobilised HSA HPLC column 50×3 mm was purchased from Chromtech (Cheshire, UK).
Mobile phase and detection: The mobile phase A was 50 mM pH 7.4 ammonium acetate solution, while mobile phase B was 2-Propanol (HPLC grade, Runcorn, UK). The mobile phase flow rate was 1.8 ml/min. The column temperature was kept at 30° C. The gradient profile and run time were the same with each column, the linear gradient from 0 to 30% 2-propanol was applied from 0 to 3 minutes. From 3 to 5 minutes, the mobile phase composition was constant 30% 2-propanol and 70% 50-mM ammonium acetate. From 5 min to 5.2 min the mobile phase composition was change to 100% ammonium acetate buffer only and remained the same until the end of the run. Each separation was stopped after 6 minutes. The column temperature was kept at 30° C.
Detection: Chromatograms were recorded at 230 and 254 nm by a diode array UV absorption detector at room temperature.

neutrophilia = experiment: Inhibition of LPS-induced lung neutrophilia in rats, intratracheal dosing; type: in vivo; settings: rat, retested at 30 ug/kg, similar method
Description: Rats are lightly anaesthetized (isofluorane in oxygen) and vehicle or test substance administered intratracheally using a cannula placed trans-orally (200 μl). Following intratracheal administration, rats are returned to their cages and allowed free access to both food and water. Thirty min later, rats are placed in a perspex box and exposed to aerosolized lipopolysaccharide (LPS) (0.15 mg/ml, serotype 0127:B8) for 15 min (Devilbiss nebuliser) at a flow rate of 15 ml/min. Animals are killed 4 h later with pentobarbital (250 mg/kg i.p.). The lungs are lavaged using 3 aliquots (5 ml) of phosphate-buffered saline (Sigma catalogue no. P3813, pH 7.4) containing heparin (10 units/ml); recovered cells are pooled (pooled volume of recovered fluid will be recorded) and centrifuged (1300 rpm for 7 min). The supernatant is removed by aspiration and the cell pellet resuspended in 1 ml phosphate-buffered saline. Total cells are counted (Sysmex Microcell Counter F-500, TOA Medical Electronics Ltd., Japan). Smears are made by diluting recovered fluid (to approximately 10^6 cells/ml) and spinning an aliquot (100 μl) in a centrifuge (Cytospin, Shandon, UK). […] A total of 300 cells per smear are counted by light microscopy under oil immersion (×1000).

[3] = biological target: T2, human adenosine A3 receptor (Homo sapiens, UniProt P0DMS8); experiment: Agonist activity at human adenosine A3 receptor, CHO cells with cAMP response element SPAP reporter; type: cell-based; settings: forskolin enhanced cAMP
T2 construct: expressed in transfected cells
T2 sequence (P0DMS8 1-318): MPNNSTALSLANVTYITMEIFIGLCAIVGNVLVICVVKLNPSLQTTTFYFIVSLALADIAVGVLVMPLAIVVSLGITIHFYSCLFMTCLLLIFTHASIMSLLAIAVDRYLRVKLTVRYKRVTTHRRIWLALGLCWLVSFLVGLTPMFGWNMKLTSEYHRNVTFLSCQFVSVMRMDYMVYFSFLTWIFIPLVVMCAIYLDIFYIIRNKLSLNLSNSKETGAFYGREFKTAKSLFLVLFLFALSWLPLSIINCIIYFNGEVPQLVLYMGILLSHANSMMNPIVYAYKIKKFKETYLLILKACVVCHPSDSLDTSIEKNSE
Description: The adenosine A3 agonist potency of compounds are determined using Chinese Hamster ovary cells stably expressing the human adenosine A3 receptor and the cAMP response element SPAP (secreted placental alkaline phosphatase). Increasing the level of cAMP in theses cell causes an increase in the transcription of the SPAP reporter gene, which can be quantified by addition of a colour substrate to measure a coloured product. The adenosine A3 receptor is Gi linked so levels cAMP have to be enhanced by forskolin in these cells. Activation of the adenosine A3 receptor is determined by the reduction of forskolin enhanced cAMP, which is measured as a decrease in the coloured product. The Adenosine A3 activity of the test compounds is expressed as a ratio to that of the non-selective adenosine receptor agonist, N-ethyl carboxamide adenosine (NECA).

| SMILES | lit logK [1] | % HSA measured ([2]; pH 7.4) [%] | logK measured [2] | logtR [2] | tR [2] | inhibition of neutrophilia (neutrophilia) [%] | Adenosine A3 agonist activity [3] | HSA binding ([2]; pH 7.4) |
| --- | --- | --- | --- | --- | --- | --- | --- | --- |
| O=C1CN=C(c2ccccn2)c2cc(Br)ccc2N1 [Bromazepam] | 0.17 | 74.7 | 0.45 | 0.06 | 1.16 |  |  |  |
| CCCC1O[C@@H]2C[C@H]3[C@@H]4CCC5=CC(=O)C=C[C@]5(C)[C@H]4[C@@H](O)C[C@]3(C)[C@]2(C(=O)CO)O1 (stereo partly drawn) [Budesonide] | 0.83 | 85.6 | 0.75 | 0.20 | 1.6 |  |  |  |
| NC(=O)N1c2ccccc2C=Cc2ccccc21 [Carbamazepine] | 0.46 | 80.5 | 0.59 | 0.13 | 1.35 |  |  |  |
| O=C(O)Cc1ccccc1Nc1c(Cl)cccc1Cl [Diclofenac] | 1.92 |  |  |  |  |  |  |  |
| CCn1nnc([C@H]2O[C@@H](n3cnc4c(N[C@H]5CC[C@H](Nc6nc(NCCCCN7CCCC7)nc7[nH]cnc67)CC5)nc(NCCCCN5CCCC5)nc43)[C@H](O)[C@@H]2O)n1 [Example 4, (2R,3S,4R,5R)-2-(2-ethyl-2H-tetrazol-5-yl)-5-[2-{[4-(1-pyrrolidinyl)butyl]amino}-6-({trans-4-[(2-{[4-(1-pyrrolidinyl)butyl]amino}-1H-purin-6-yl)amino]cyclohexyl}amino)-9H-purin-9-yl]tetrahydro-3,4-furandiol, triformate] |  |  |  |  |  | > 50 |  |  |
| CCn1nnc(C2OC(n3cnc4c(NC5CCC(Nc6ccnc(NCCc7nc[nH]c7C)n6)CC5)nc(NCCc5nc[nH]c5C)nc43)C(O)C2O)n1.O=CO.O=CO [Example 8, (2R,3S,4R,5R)-2-(2-ethyl-2H-tetrazol-5-yl)-5-[2-{[2-(5-methyl-1H-imidazol-4-yl)ethyl]amino}-6-({trans-4-[(2-{[2-(5-methyl-1H-imidazol-4-yl)ethyl]amino}-4-pyrimidinyl)amino]cyclohexyl}-amino)-9H-purin-9-yl]tetrahydro-3,4-furandiol, diformate] |  |  |  |  |  |  | functionally inactive over the concentration range of the assay | greater than 90% |
| CCn1nnc([C@H]2O[C@@H](n3cnc4c(N[C@H]5CC[C@H](Nc6ccnc(N[C@H]7CC[C@H](N)CC7)n6)CC5)nc(N[C@H]5CC[C@H](N)CC5)nc43)[C@@H](O)[C@H]2O)n1.O=CO.O=CO.O=CO [Example 10, (2R,3S,4R,5R)-2-(2-[(trans-4-aminocyclohexyl)amino]-6-{[trans-4-({2-[(trans-4-aminocyclohexyl)amino]-4-pyrimidinyl}amino)cyclohexyl]-amino}-9H-purin-9-yl)-5-(2-ethyl-2H-tetrazol-5-yl)tetrahydro-3,4-furandiol, triformate] |  |  |  |  |  |  | functionally inactive over the concentration range of the assay |  |
| COC(=O)C1=C(C)NC(C)=C(C(=O)OCCN(C)Cc2ccccc2)C1c1cccc([N+](=O)[O-])c1 (stereo not drawn) [Nicardipine] |  | 95.0 | 1.22 | 0.43 | 2.7 |  |  |  |
| CNC(=C[N+](=O)[O-])NCCSCc1csc(CN(C)C)n1 [Nizatidine] | −0.28 | 24.6 | −0.49 |  | 0.40 |  |  |  |
| CN1C(C(=O)Nc2ccccn2)=C(O)c2ccccc2S1(=O)=O [Piroxicam] | 1.16 | 96.6 | 1.34 | 0.49 | 3.1 |  |  |  |
